System: human monocytic cell line U937
Test: Human U937 cellular necroptosis assay (TNFalpha + z-VAD-FMK, Cell Titer-Glo viability)
Format: cell-based
Conditions: Homo sapiens, U-937, 22 h, U937 cells, 25 ng/mL human TNFalpha + 25 μM z-VAD-FMK, read-out: hU937 Avg IC50
Method: The human monocytic cell line U937 (CRL-1593.2) was purchased from ATCC. The cells were routinely maintained in RPMI-1640 Medium (Gibco, Catalog #11875-093) supplemented with 10% heat inactivated fetal bovine serum (Gibco, Catalog #16140-071), 100 units/mL penicillin and 100 μg/mL streptomycin (Gibco, Catalog #15140-122), in a humidified incubator (37° C., 5% CO2). For the assay, cells were resuspended in RPMI-1640 phenol red free Media (Gibco, Catalog #11835-030) supplemented with 10% fetal bovine serum (Sigma, Catalog #F2442), 100 units/mL penicillin and 100 ug/mL streptomycin. Cells were stimulated with 25 ng/mL human TNFalpha (Cell Sciences, Catalog #CSI15659B) and 25 μM z-VAD-FMK (R&D Systems, Catalog #FMK001) followed by seeding 5000 cells per well in a volume of 40 μL to a white, CulturPlate-384 (Perkin Elmer, Catalog #6007680). Stock solutions of the test compounds were prepared in 100% DMSO (Sigma, Catalog #D2650) and serially diluted 1:3 using 100% DMSO. Compounds were additionally diluted 1:40 in assay medium, and 10 μL/well was transferred to the plate. Following the compound addition the plate was incubated at 37° C. and 5% CO2 for 22 h. After 22 h, viability was assessed with the addition of 20 μL of Cell Titer-Glo 2.0 (Promega, Catalog #G9243). The tissue culture plate was shaken on an orbital shaker at 300 RPM for 15 minutes at rt in the dark. Luminescence was measured using a PerkinElmer Envision™ plate reader. IC50 values were calculated using a four-parameter logistic curve fit using Genedata Screener software. Results are shown below in Table 3, where the average value across multiple runs is given.

Row | SMILES | IC50 [nM]
1 | Cc1cc(C#N)cnc1OCC12CC(C(=O)N3N=CCC3c3cc(F)cc(F)c3)(C1)C2 (stereo not drawn) [Example 225, 6-((3-(5-(3,5-difluorophenyl)-4,5-dihydro-1H-pyrazole-1-carbonyl)bicyclo[1.1.1]pentan-1-yl)methoxy)-5-methyl-nicotinonitrile] | 92
2 | O=C(N1N=CCC1c1cc(F)cc(F)c1)C12CC(C(F)c3cc(F)cc(Cl)c3)(C1)C2 (stereo not drawn) [Example 227, (3-((3-chloro-5-fluorophenyl-)fluoromethyl)bicyclo[1.1.1]-pentan-1-yl)(5-(3,5-difluoro-phenyl)-4,5-dihydro-1H-pyrazol-1-yl)methanone] | 133
3 | COc1cc(C(F)C23CC(C(=O)N4N=CCC4c4cc(F)cc(F)c4)(C2)C3)ncn1 (stereo not drawn) [Example 229, (5-(3,5-difluorophenyl)-4,5-dihydro-1H-pyrazol-1-yl)(3-(fluoro(6-methoxypyrimidin-4-yl)methyl)bicyclo[1.1.1]-pentan-1-yl)methanone] | 5060
4 | COc1ccc(C(O)C23CC(C(=O)N4N=CCC4c4cc(F)cc(F)c4)(C2)C3)cc1 (stereo not drawn) [Example 231, (5-(3,5-difluorophenyl)-4,5-dihydro-1H-pyrazol-1-yl)(3-(hydroxy(4-methoxyphenyl)-methyl)bicyclo[1.1.1]pentan-1-yl)methanone] | 3040
5 | COc1cc(C(O)C23CC(C(=O)N4N=CCC4c4cc(F)cc(F)c4)(C2)C3)ncn1 (stereo not drawn) [Example 232, (5-(3,5-difluorophenyl)-4,5-dihydro-1H-pyrazol-1-yl)(3-(hydroxy(6-methoxy-pyrimidin-4-yl)methyl)-bicyclo[1.1.1]pentan-1-yl)-methanone] | 8110
6 | Cc1cnc(C2CC=NN2C(=O)C23CC(Cn4ncc5nc(C#N)ccc54)(C2)C3)cn1 (stereo not drawn) [Example 235, 1-((3-(5-(5-methylpyrazin-2-yl)-4,5-dihydro-1H-pyrazole-1-carbonyl)bicyclo[1.1.1]-pentan-1-yl)methyl)-1H-pyrazolo[4,3-b]pyridine-5-carbonitrile] | 339
7 | Cc1cc(F)c(C2CC=NN2C(=O)C23CC(Cn4ncc5cc(C#N)ccc54)(C2)C3)cc1F (stereo not drawn) [Example 236, 1-((3-(5-(2,5-difluoro-4-methylphenyl)-4,5-dihydro-1H-pyrazole-1-carbonyl)-bicyclo[1.1.1]pentan-1-yl)-methyl)-1H-indazole-5-carbonitrile] | 3.8
8 | N#Cc1ccc2c(cnn2CC23CC(C(=O)N4N=CCC4c4cccc(F)c4F)(C2)C3)c1 (stereo not drawn) [Example 237, 1-((3-(5-(2,3-difluoropheny1)-4,5-dihydro-1H-pyrazole-1-carbonyl)bicyclo[1.1.1]pentan-1-yl)methyl)-1H-indazole-5-carbonitrile] | 7.8
9 | Cc1ccc(C2CC=NN2C(=O)C23CC(Cn4ncc5cc(C#N)ccc54)(C2)C3)c(F)c1 (stereo not drawn) [Example 238, 1-((3-(5-(2-fluoro-4-methyl-phenyl)-4,5-dihydro-1H-pyrazole-1-carbonyl)bicyclo-[1.1.1]pentan-1-yl)methyl)-1H-indazole-5-carbonitrile] | 8.4
10 | Cc1ccc(C2CC=NN2C(=O)C23CC(Cn4ncc5cc(C#N)ccc54)(C2)C3)cc1F (stereo not drawn) [Example 239, 1-((3-(5-(3-fluoro-4-methyl-phenyl)-4,5-dihydro-1H-pyrazole-1-carbonyl)bicyclo-[1.1.1]pentan-1-yl)methyl)-1H-indazole-5-carbonitrile] | 10
11 | N#Cc1ccc2c(cnn2CC23CC(C(=O)N4N=CCC4c4ccc(F)cc4F)(C2)C3)c1 (stereo not drawn) [Example 240, 1-((3-(5-(2,4-difluorophenyl)-4,5-dihydro-1H-pyrazole-1-carbonyl)bicyclo[1.1.1]pentan-1-yl)methyl)-1H-indazole-5-carbonitrile] | 13
12 | N#Cc1ccc2c(cnn2CC23CC(C(=O)N4N=CCC4c4cc(F)c(Br)c(F)c4)(C2)C3)c1 (stereo not drawn) [Example 241, 1-((3-(5-(4-bromo-3,5-difluorophenyl)-4,5-dihydro-1H-pyrazole-1-carbonyl)-bicyclo[1.1.1]pentan-1-yl)-methyl)-1H-indazole-5-carbonitrile] | 18
13 | N#Cc1ccc2c(cnn2CC23CC(C(=O)N4N=CCC4c4ccc(F)c(F)c4)(C2)C3)c1 (stereo not drawn) [Example 242, 1-((3-(5-(3,4-difluorophenyl)-4,5-dihydro-1H-pyrazole-1-carbonyl)bicyclo[1.1.1]pentan-1-yl)methyl)-1H-indazole-5-carbonitrile] | 20
14 | Cc1cccc(C2CC=NN2C(=O)C23CC(Cn4ncc5cc(C#N)ccc54)(C2)C3)c1 (stereo not drawn) [Example 243, 1-((3-(5-(m-tolyl)-4,5-dihydro-1H-pyrazole-1-carbonyl)-bicyclo[1.1.1]pentan-1-yl)-methyl)-1H-indazole-5-carbonitrile] | 31
15 | N#Cc1ccc2c(cnn2CC23CC(C(=O)N4N=CCC4c4ccc(F)cc4)(C2)C3)c1 (stereo not drawn) [Example 244, 1-((3-(5-(4-fluorophenyl)-4,5-dihydro-1H-pyrazole-1-carbonyl)bicyclo[1.1.1]pentan-1-yl)methyl)-1H-indazole-5-carbonitrile] | 37
16 | N#Cc1ccc2c(cnn2CC23CC(C(=O)N4N=CCC4c4cccc(Cl)c4Cl)(C2)C3)c1 (stereo not drawn) [Example 245, 1-((3-(5-(2,3-dichlorophenyl)-4,5-dihydro-1H-pyrazole-1-carbonyl)bicyclo[1.1.1]pentan-1-yl)methyl)-1H-indazole-5-carbonitrile] | 43
17 | Cc1ncc(C2CC=NN2C(=O)C23CC(Cn4ncc5cc(C#N)ccc54)(C2)C3)cc1F (stereo not drawn) [Example 246, 1-((3-(5-(5-fluoro-6-methyl-pyridin-3-yl)-4,5-dihydro-1H-pyrazole-1-carbonyl)bicyclo-[1.1.1]pentan-1-yl)methyl)-1H-indazole-5-carbonitrile] | 73
18 | N#Cc1ccc2c(cnn2CC23CC(C(=O)N4N=CCC4c4ncc5ccccn45)(C2)C3)c1 (stereo not drawn) [Example 247, 1-((3-(5-(imidazo[1,5-a]-pyridin-3-yl)-4,5-dihydro-1H-pyrazole-1-carbonyl)bicyclo[1.1.1]pentan-1-yl)methyl)-1H-indazole-5-carbonitrile] | 81
19 | Cc1ccc(C2CC=NN2C(=O)C23CC(Cn4ncc5cc(C#N)ccc54)(C2)C3)cn1 (stereo not drawn) [Example 249, 1-((3-(5-(6-methylpyridin-3-yl)-4,5-dihydro-1H-pyrazole-1-carbonyl)bicyclo[1.1.1]-pentan-1-yl)methyl)-1H-indazole-5-carbonitrile] | 299
20 | Cc1csc(C2CC=NN2C(=O)C23CC(Cn4ncc5cc(C#N)ccc54)(C2)C3)n1 (stereo not drawn) [Example 250, 1-((3-(5-(4-methylthiazol-2-yl)-4,5-dihydro-1H-pyrazole-1-carbonyl)bicyclo[1.1.1]-pentan-1-yl)methyl)-1H-indazole-5-carbonitrile] | 267
21 | N#Cc1ccc2c(cnn2CC23CC(C(=O)N4N=CCC4c4ccc(C#N)s4)(C2)C3)c1 (stereo not drawn) [Example 251, 1-((3-(5-(5-cyanothiophen-2-yl)-4,5-dihydro-1H-pyrazole-1-carbonyl)bicyclo[1.1.1]-pentan-1-yl)methyl)-1H-indazole-5-carbonitrile] | 397
22 | N#Cc1ccc2c(cnn2CC23CC(C(=O)N4N=CCC4c4nc(C#N)cs4)(C2)C3)c1 (stereo not drawn) [Example 254, 2-(1-(3-((5-cyano-1H-indazol-1-yl)methyl)bicyclo[1.1.1]-pentane-1-carbonyl)-4,5-dihydro-1H-pyrazol-5-yl)-thiazole-4-carbonitrile] | 503
23 | C[C@H](NC(=O)C12CC(Cn3ncc4cc(C#N)ccc43)(C1)C2)c1c(F)cccc1Cl [Example 256, (S)-N-(1-(2-chloro-6-fluoro-phenyl)ethyl)-3-((5-cyano-1H-indazol-1-yl)methyl)bicyclo-[1.1.1]pentane-1-carboxamide] | 895
24 | CC1CC(c2cccc(F)c2)N(C(=O)C23CC(Cn4ncc5cc(C#N)ccc54)(C2)C3)C1 (stereo not drawn) [Example 257, 1-((3-(2-(3-fluorophenyl)-4-methylpyrrolidine-1-carbonyl)-bicyclo[1.1.1]pentan-1-yl)-methyl)-1H-indazole-5-carbonitrile] | 2080
25 | N#Cc1ccc2c(cnn2CC23CC(C(=O)N4N=CCC4c4ncccn4)(C2)C3)c1 (stereo not drawn) [Example 259, 1-((3-(5-(pyrimidin-2-yl)-4,5-dihydro-1H-pyrazole-1-carbonyl)bicyclo[1.1.1]pentan-1-yl)methyl)-1H-indazole-5-carbonitrile] | 5450
26 | Cc1c(F)cc(C2CC=NN2C(=O)C23CC(COc4ccc(C#N)cn4)(C2)C3)cc1F (stereo not drawn) [Example 264, 6-((3-(5-(3,5-difluoro-4-methylphenyl)-4,5-dihydro-1H-pyrazole-1-carbonyl)-bicyclo[1.1.1]pentan-1-yl)-methoxy)nicotinonitrile] | 12
27 | Cc1c(F)cc([C@@H]2CC=NN2C(=O)C23CC(COc4ccc(C#N)cn4)(C2)C3)cc1F [Example 265, (S)-6-((3-(5-(3,5-difluoro-4-methylphenyl)-4,5-dihydro-1H-pyrazole-1-carbonyl)-bicyclo[1.1.1]pentan-1-yl)-methoxy)nicotinonitrile] | 8.3

Reference: US20250214942A1, “INHIBITORS OF RECEPTOR INTERACTING PROTEIN KINASE I FOR THE TREATMENT OF DISEASE” (Board of Regents, The University of Texas System, priority 2019, published 2025)
